Series [1] deals with MCH1 receptor (UniProt P97639). As to the kind of experiment: Displacement of [125I]-Tyr-S36057 binding to MCH1 receptors on brain membrane preparations. The note with it: rat and/or mouse brain membranes, 50 pM [125I]-Tyr-S36057, room temperature, 30 minutes; read-out: IC50 (concentration that inhibits 50% of the specific binding). In general terms: In a radioligand displacement assay an active substance lowers the binding of a labelled ligand.
Experimental: The compounds according to the invention underwent pharmacological tests. Their affinity towards the receptor 1 of Melamin-Concentrating Hormone (MCH), MCH1 was determined by these means.
The tests consisted in measuring the in vitro activity of the compounds of the invention on the MCH1 receptors of MCH.
The measurement of the affinity of the compounds of the invention for the MCH receptors was performed by studying the displacement of the binding of a radiolabelled derivative of MCH to the MCH1 receptors. This study was performed on rat and/or mouse brain membrane preparations according to the protocol described below.
In anticipation of the binding studies, the brains are diluted in HEPES buffer 25 mM (pH: 7.4) containing MgCl2 5 mM, CaCl2 1 mM, homogenized using a Polytron blender for 3 times 20 seconds (speed 25), and are then ultracentrifuged at 22 000 rpm and at +4° C. for 30 minutes. […]
The incubation is performed at room temperature for 30 minutes, and then stopped by rapid addition of ice-cold HEPES buffer 25 mM (pH: 7.4) supplemented with 0.2% bovine serum albumin, and by filtration through GF/B glass fibre filters preincubated for 2 hours in an aqueous 0.1% polyethyleneimine solution. The radioactivity retained on the filters is measured using a Gamma scintillation counter. The non-specific binding is determined in the presence of 1 μM of non-radiolabelled S36057. […]

The test system of series [2] is MCH1 receptor. To be noted: social conflict and forced swimming in rats, maternal separation in guinea pigs; cited from earlier work.

The structures appear in SMILES notation. Where a name gives a salt, the structure may show the parent alone.

On to `COc1ccc(-c2nnc(NC3CCN(Cc4ccccc4)CC3)c3cc(OC)cc(OC)c23)cc1` [Example 2, N-(1-benzylpiperidin-4-yl)-5,7-dimethoxy-4-(4-methoxyphenyl)phthalazin-1-amine], for which the IC50 at MCH1 receptor [1] came out at 72 nM.
The same measure, in the same setting: the same measure for `c1ccc(-c2ccc3c(-c4ccccc4)nnc(NC4CCN(Cc5ccc6ccccc6c5)CC4)c3c2)cc1` [Example 42, 4,7-diphenyl-N-[1-(naphthalen-2-ylmethyl)piperidin-4-yl]-phthalazin-1-amine dihydrochloride]: 360 nM.
For `COCC1=C(C(=O)OC)[C@H](c2ccc(F)c(F)c2)N(C(=O)NCCCN2CCC(c3cccc(NC(C)=O)c3)CC2)C(=O)N1` [SNAP-7941], the “behavioural profile in animal models” value in the series with MCH1 receptor [2] is “anxiolytic and/or antidepressant profile”.
Take `COc1ccc(OC)c(-c2nnc(NC3CCN(Cc4ccc5c(c4)OCO5)CC3)c3cc(OC)ccc23)c1.Cl.Cl` (hydrate or solvate): the melting point was 272 °C.
Turning to `COc1cc(OC)cc(-c2nnc(NC3CCN(Cc4ccc5ccccc5c4)CC3)c3cc(OC)ccc23)c1.Cl.Cl` (hydrate or solvate), the melting point worked out at 240 °C.

By melting point is commonly meant the temperature, or range, at which the solid turns liquid.
